Among the data in US10118916B2, “Modulators of cystic fibrosis transmembrane conductance regulator protein” (AbbVie S.à.r.l., priority 2016, dated 2018) are EC50 and Maximum % activity values, retold here.

This assay addresses T1, F508delCFTR (Homo sapiens, UniProt P13569, DEL508-508).
T1 construct: expressed in transfected cells; host or cells: CFBE41o- (human lung derived epithelial cell line), doxycycline-inducible
The assay is described as follows: Cell Surface Expression-Horse Radish Peroxidase (CSE-HRP) assay. Type of assay: cell-based. To be noted: CFBE41o-F508delCFTR-HRP cells; for EC50: F508delCFTR cell surface expression, luminescence, 18-24 hours at 33° C., highest concentration 20 μM; for Maximum % activity: maximum at any tested concentration, normalized to on-plate positive control (3 μM). The text has this:
Cell Surface Expression-Horse Radish Peroxidase (CSE-HRP) Assay:
A cellular assay for measuring the F508delCFTR cell surface expression after correction with test compounds was developed in human lung derived epithelial cell line (CFBE41o-) (Veit G et al, (2012) Mol Biol Cell. 23(21): 4188-4202). This was achieved by expressing the F508delCFTR mutation along with a horseradish peroxidase (HRP) in the fourth exofacial loop and then measuring the HRP activity using luminescence readout from these cells, CFBE41o-F508delCFTR-HRP, that were incubated overnight with the test corrector compounds. Briefly, for this primary assay, the CFBE41o-F508delCFTR-HRP cells were plated in 384-well plates (Greiner Bio-one; Cat 781080) at 4,000 cells/well along with 0.5 μg/mL doxycycline to induce the F508delCFTR-HRP expression and further incubated at 37° C., 5% CO2 for 72 hours. The test compounds were then added at the required concentrations and further incubated for 18-24 hours at 33° C. The highest concentration tested was 20 μM with an 8-point concentration response curve using a 3-fold dilution. Three replicate plates were run to determine one EC50. All plates contained negative controls (dimethyl sulfoxide, DMSO) and positive controls (3 μM of 3-[(2R,4R)-4-({[1-(2,2-difluoro-1,3-benzodioxol-5-yl)cyclopropyl]carbonyl}amino)-7-methoxy-3,4-dihydro-2H-chromen-2-yl]benzoic acid) as well as on-plate concentration response of the positive control. Post incubation, the plates were washed 5× times with Dulbecco's phosphate buffered saline (DPBS), followed by the addition of the HRP substrate, luminol (50 μL), and measuring the HRP activity using luminescence readout on EnVision® Multilabel Plate Reader (Perkin Elmer; product number 2104-0010). The raw counts from the experiment are analyzed using Accelrys® Assay Explorer v3.3.
Z′ greater than 0.5 was used as passing quality control criteria for the plates.
The Z′ is defined as: 1−[3*SDPositive Control+3*SDNegative Control/Absolute(MeanPositive Control−MeanNegative Control)] wherein “SD” is standard deviation.
The % activity measured at each of the 8 test concentrations of the test compound was normalized to the on-plate positive control using the following formula: % activity=[(test compound response−DMSO response)/(positive control response−DMSO response)]*100
The maximum % activity achieved for the test compound at any tested concentration is presented in Table 1 along with the EC50 calculated using the following general sigmoidal curve with variable Hill slope equation (described as Model 42 in the Accelrys® Assay Explorer v3.3 software): y=(a−d)/(1+(x/c)^b)+d
General sigmoidal curve with concentration, response, top, bottom, EC50 and Hill slope.
This model describes a sigmoidal curve with an adjustable baseline, a. The equation can be used to fit curves where response is either increasing or decreasing with respect to the independent variable, “x”. • “x” is a concentration of drug under test. • “y” is the response. • “a” is the maximum response, and “d” is the minimum response • “c” is the inflection point (EC50) for the curve. That is, “y” is halfway between the lower and upper asymptotes when x=c. • “b” is the slope-factor or Hill coefficient. The sign of b is positive when the response increases with increasing dose and is negative when the response decreases with increasing dose (inhibition).

T1 sequence (P13569 with tags, fused parts or gaps DEL508-508): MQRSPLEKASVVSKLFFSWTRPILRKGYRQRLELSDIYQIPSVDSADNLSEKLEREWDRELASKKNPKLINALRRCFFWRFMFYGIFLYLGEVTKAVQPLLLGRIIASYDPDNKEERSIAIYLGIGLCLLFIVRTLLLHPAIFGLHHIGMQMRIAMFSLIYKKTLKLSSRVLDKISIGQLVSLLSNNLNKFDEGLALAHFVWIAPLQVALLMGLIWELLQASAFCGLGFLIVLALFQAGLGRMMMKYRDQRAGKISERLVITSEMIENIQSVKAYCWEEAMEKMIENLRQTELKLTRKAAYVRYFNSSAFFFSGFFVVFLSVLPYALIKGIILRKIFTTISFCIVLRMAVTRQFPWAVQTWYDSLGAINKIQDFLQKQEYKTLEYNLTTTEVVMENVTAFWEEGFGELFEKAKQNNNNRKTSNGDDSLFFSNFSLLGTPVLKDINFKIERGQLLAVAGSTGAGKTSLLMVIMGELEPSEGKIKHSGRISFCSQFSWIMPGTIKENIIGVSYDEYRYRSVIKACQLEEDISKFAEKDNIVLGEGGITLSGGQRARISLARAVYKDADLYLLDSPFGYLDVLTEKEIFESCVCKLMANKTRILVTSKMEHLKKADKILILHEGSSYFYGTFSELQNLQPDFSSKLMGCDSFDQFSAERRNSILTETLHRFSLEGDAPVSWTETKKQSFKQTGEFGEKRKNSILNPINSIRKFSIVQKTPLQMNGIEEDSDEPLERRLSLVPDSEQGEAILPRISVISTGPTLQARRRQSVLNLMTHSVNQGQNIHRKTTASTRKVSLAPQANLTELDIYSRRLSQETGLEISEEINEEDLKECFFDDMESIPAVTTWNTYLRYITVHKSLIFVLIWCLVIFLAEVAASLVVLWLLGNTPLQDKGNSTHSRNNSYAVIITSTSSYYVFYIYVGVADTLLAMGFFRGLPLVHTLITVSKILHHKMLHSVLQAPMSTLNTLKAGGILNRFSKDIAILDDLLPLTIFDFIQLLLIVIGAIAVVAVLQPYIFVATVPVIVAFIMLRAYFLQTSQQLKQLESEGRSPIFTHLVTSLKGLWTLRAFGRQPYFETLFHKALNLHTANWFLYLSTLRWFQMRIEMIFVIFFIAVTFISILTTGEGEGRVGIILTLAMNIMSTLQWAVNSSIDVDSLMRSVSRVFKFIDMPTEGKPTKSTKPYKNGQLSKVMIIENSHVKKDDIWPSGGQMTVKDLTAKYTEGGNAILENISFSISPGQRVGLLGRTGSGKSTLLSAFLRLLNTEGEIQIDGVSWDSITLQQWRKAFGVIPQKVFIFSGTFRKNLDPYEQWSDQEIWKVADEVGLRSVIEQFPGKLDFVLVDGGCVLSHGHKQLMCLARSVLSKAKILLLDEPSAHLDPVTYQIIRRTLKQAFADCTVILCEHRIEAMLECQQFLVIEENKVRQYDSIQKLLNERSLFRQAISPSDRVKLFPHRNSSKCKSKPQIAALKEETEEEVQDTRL

By EC50 is commonly meant the midpoint of the concentration-response curve. Lower therefore signals greater potency. On to `COc1ccc2c(c1)OC(c1ccc(OC)c(OC)c1)CC2NC(=O)C(C)(C)Oc1ccc(Cl)cc1` (centres unmarked) [Example 18, 2-(4-chlorophenoxy)-N-[2-(3,4-dimethoxyphenyl)-7-methoxy-3,4-dihydro-2H-1-benzopyran-4-yl]-2-methylpropanamide], for which the EC50 was greater than 20000 nM and the Maximum % activity came to 5.5%.

On to `COc1ccc2c(c1)OC(c1ccc(OC)c(OC)c1)CC2NC(=O)C1(c2cccc(F)c2)CC1` (centres unmarked) [Example 19, N-[2-(3,4-dimethoxyphenyl)-7-methoxy-3,4-dihydro-2H-1-benzopyran-4-yl]-1-(3-fluorophenyl)cyclopropane-1-carb oxamide], for which the EC50 was determined as 1270 nM and the Maximum % activity was found to be 40.8%.

`COc1ccc2c(c1)OC(c1ccc(OC)c(OC)c1)CC2NC(=O)C1(c2ccc(F)cc2)CC1` (centres unmarked) [Example 20, N-[2-(3,4-dimethoxyphenyl)-7-methoxy-3,4-dihydro-2H-1-benzopyran-4-yl]-1-(4-fluorophenyl)cyclopropane-1-carb oxamide]: a half-maximal response (EC50) required 890 nM and the Maximum % activity worked out at 51.1%.

In turn, `COc1ccc2c(c1)OC(c1ccc(OC)c(OC)c1)CC2NC(=O)C1(c2ccc(Cl)cc2)CC1` (centres unmarked) [Example 21, 1-(4-chlorophenyl)-N-[2-(3,4-dimethoxyphenyl)-7-methoxy-3,4-dihydro-2H-1-benzopyran-4-yl]cyclopropane-1-carboxamide] had an EC50 of 1140 nM and a Maximum % activity of 77.8%.

Turning to `COc1ccc2c(c1)OC(c1ccc(OC)c(OC)c1)CC2NC(=O)C(C)(C)c1ccc(Cl)cc1` (centres unmarked) [Example 22, 2-(4-chlorophenyl)-N-[2-(3,4-dimethoxyphenyl)-7-methoxy-3,4-dihydro-2H-1-benzopyran-4-yl]-2-methylpropanamide], a half-maximal effect (EC50) was put at 990 nM and the Maximum % activity was 56.6%.

Regarding `COc1ccc(C(C)(C)C(=O)NC2CC(c3ccc(OC)c(OC)c3)Oc3cc(OC)ccc32)cc1` (centres unmarked) [Example 23, N-[2-(3,4-dimethoxyphenyl)-7-methoxy-3,4-dihydro-2H-1-benzopyran-4-yl]-2-(4-methoxyphenyl)-2-methylpropanamide], a half-maximal effect (EC50) was put at 230 nM and the Maximum % activity was 54.0%.

With `COc1ccc(C(C)(C)C(=O)N[C@H]2C[C@H](c3cccc(C(=O)O)c3)Oc3cc(OC)ccc32)cc1` [Example 24, 3-{(2R,4S)-7-methoxy-4-[2-(4-methoxyphenyl)-2-methylpropanamido]-3,4-dihydro-2H-1-benzopyran-2-yl}benzoic acid], the EC50 was 1160 nM and the Maximum % activity is 38.3%.

For `COc1ccc(C(C)(C)C(=O)N[C@@H]2C[C@H](c3cccc(C(=O)O)c3)Oc3cc(OC)ccc32)cc1` [Example 25, 3-{(2R,4R)-7-methoxy-4-[2-(4-methoxyphenyl)-2-methylpropanamido]-3,4-dihydro-2H-1-benzopyran-2-yl}benzoic acid], the response was half-maximal at 230 nM (EC50) and the Maximum % activity was found to be 39.5%.

The compound `C[C@]1(C(=O)N[C@@H]2C[C@H](c3cccc(C(=O)O)c3)Oc3ccccc32)Cc2cc(Cl)ccc2O1` [Example 26, 3-[(2R,4R)-4-{[(2R)-5-chloro-2-methyl-2,3-dihydro-1-benzofuran-2-carbonyl]amino}-3,4-dihydro-2H-1-benzopyran-2-yl]benzoic acid] came in with an EC50 greater than 20000 nM and a Maximum % activity of 1.6%.

The compound `C[C@@]1(C(=O)N[C@@H]2C[C@H](c3cccc(C(=O)O)c3)Oc3ccccc32)Cc2cc(Cl)ccc2O1` [Example 27, 3-[(2R,4R)-4-{[(2S)-5-chloro-2-methyl-2,3-dihydro-1-benzofuran-2-carbonyl]amino}-3,4-dihydro-2H-1-benzopyran-2-yl]benzoic acid] came in with an EC50 greater than 20000 nM and a Maximum % activity of 7.9%.
